The values that follow come from EP1551873B1, “AGONISTS AND ANTAGONISTS OF THE HUMAN ODORANT RECEPTOR OR17-4 AND USES THEREOF” (Symrise AG, priority 2002, dated 2004).

Assay [1] relates to hOR17-4. Briefly: Ca2+ imaging (Fura-2) of HEK293 cells transiently transfected with pOR17-4 (chimeric receptor). It counts as cell-based, human. As to conditions: for Rezeptoraktivierung (Ca^2+-Antwort): single odorant about 500 µM, pOR17-4-transfected HEK293 cells; for Wirksamkeit (Rangordnung der Agonisten): ranking by amplitude normalised to ATP and by responding cells relative to Cyclamal ca. 5 mM. An excerpt: Es wird vermutet, dass die Transmembrandomänen III-VI eine Bindungstasche zum Binden von Agonisten bilden (s. S. Firestein, Nature 413, 211-218 (2001)). Um diese Vermutung für den Rezeptor hOR17-4 zu überprüfen wurde ein für die vermuteten Transmembrandomänen III bis VI codierender Abschnitt der für hOR17-4 codierenden cDNA in einem Shuttle-Expressions-Vektor (pOLF-Express) kloniert. Der Expressionsvektor pOLF-Express umfasst die für die N- und C-terminalen Regionen von hOR17-40 codierenden DNA-Abschnitte (C. H. Wetzel et al., Journal of Neuroscience 19, 7426-7433 (1999)). Das resultierende chimäre Rezeptorprotein sollte die Agonistenspezifität des vollständigen Rezeptors hOR17-4 besitzen.
HEK293-Zellen wurden in MEM (Life Technologies, Gaithersburg, MD), das mit 10 % hitze-inaktiviertem fetalem Kälber-Serum angereichert war, in einem Inkubator bei 37 °C in einer Atmosphäre aus 95 % befeuchteter Luft und 5 % CO2 kultiviert. Semikonfluente Zellen wurden in 35 mm Gefäßen (Falcon) mittels Calciumphosphat-Präzipitation (Zufall et al., PNAS 90 (1993), 9335-9339) unter Verwendung jeweils des Plasmids pOR17-4 bzw. pOR17-4v transfiziert. Die Transfektionseffizienz - typischerweise 10 % - wurde histochemisch mit dem Reporterplasmid pCH110 (Pharmacia, Uppsala, Schweden) überprüft, das für β-Galactosidase codiert. Messungen wurden 48 bis 72 Stunden nach der Transfektion durchgeführt. Die Transfektionseffizienz kann mit einem für GFP, einem grün fluoreszierenden Protein, codierenden Reporterplasmid ebenfalls überprüft werden.
Die Rezeptor-Aktivierung in HEK293-Zellen führt zu einem vorübergehenden Anstieg der cytosolischen Ca^2+-Konzentration, die auf der Einzelzell-Ebene unter Verwendung des Ca^2+-sensitiven Farbstoffes Fura-2 (Fura-2 AM, Molecular Probes Europe BV, Leiden, Niederlande; Ladekonzentration 3-4 µg/ml; Ladezeit ca. 30 min) und ratiofluorometrischen Bildgebungstechniken (Imaging-Experimente) detektiert wurden.
Die Ca^2+-imaging-Experimente wurden auf dem Träger eines invertierten Zeiss-Mikroskopes durchgeführt, das für die ratiofluorometrische Bildgebung mit einer Xenon-Bogenlampe, einem Vielfach-Wellenlängen-Illuminations-System POLYCH-ROM II zur Anregung, einer gekühlten charge-coupled device (CCD)-Kamera und einer WinNT-basierten T.I.L.L.-Vision-Software zum Sammeln und raum- und zeitabhängigen Quantifizieren Ca^2+-abhängiger Fluoreszenz-Signale (F340/F380-Verhältnis) ausgestattet war. HEK293-Zellen wurden mit 32-facher, Spermazellen mit 63-facher Vergrößerung beobachtet.
HEK293- und Spermazellen wurden unter Verwendung eines speziellen Applikations-Systems, das es gestattete, vorübergehend alle Zellen im Blickfeld aus einem von sechs benutzergewählten Kapillarröhrchen zu überspülen, Geruchs- und/oder Wirkstoffen (Testlösungen) ausgesetzt. Der Wechsel zwischen den Testlösungen erfolgte nahezu sofort; auch trat im Wesentlichen keine Wirkungsverzögerung nach dem Wechsel auf, weil die Röhrchenspitzen zum optischen Feld eng benachbart waren. Zwischen den Applikationen von Testlösungen überspülte ein Pufferlösungsstrom kontinuierlich alle Zellen im Gefäß, um jedwede potentielle Hintergrund-Anreicherung von Testlösungen (Geruchs- bzw. Wirkstoffen) zu minimieren. Alle Lösungen wurden bei Raumtemperatur appliziert. Alle verwendeten Geruchsstoffe stammten von Dr. T. Gerke, Henkel KGaA, Düsseldorf, FRG, andere Wirkstoffe wurden von Sigma gekauft. Zur Zusammensetzung der Henkel 100-Mischung vergleiche C. H. Wetzel et al., Journal of Neuroscience 19, 7426-7433 (1999).
Alle auf die potentielle Aktivierung von hOR17-4 untersuchten Geruchsstoffe wurden wenigstens in drei verschiedenen Reihen von Transfektionsexperimenten getestet. […] Geruchsstoffe, die nicht in wenigstens 2 % aller HEK293-Zellen messbare Ca^2+-Konzentrationssteigerung auslösten, wurden nicht zu den hOR17-4-spezifischen Agonisten gezählt, ebenso diejenigen wenigen der untersuchten Komponenten, die ein unspezifisches Ca^2+-Signal in fast jeder Zelle hervorriefen. […]

The target in assay [2] is T1, hOR17-40 (Homo sapiens, UniProt P47881).
T1 construct: pOR17-40 (Ausschnitt) mit der vollständigen cDNA von hOR17-40; expressed in transfected cells; host or cells: HEK293, plasmid pOR17-40
T1 sequence (P47881 1-315): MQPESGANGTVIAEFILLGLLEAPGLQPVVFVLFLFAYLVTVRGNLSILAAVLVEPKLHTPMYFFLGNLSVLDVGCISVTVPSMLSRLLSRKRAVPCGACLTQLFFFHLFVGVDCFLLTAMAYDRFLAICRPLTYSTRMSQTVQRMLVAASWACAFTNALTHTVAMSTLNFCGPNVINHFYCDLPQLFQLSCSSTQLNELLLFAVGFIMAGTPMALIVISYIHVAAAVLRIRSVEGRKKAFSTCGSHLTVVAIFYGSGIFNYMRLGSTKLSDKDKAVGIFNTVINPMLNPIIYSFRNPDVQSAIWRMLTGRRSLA
To be noted: literature (Wetzel et al. 1999), HEK293; cited from earlier work.

Assay [3] addresses T1, hOR17-40. Briefly: Ca2+ imaging of HEK293 cells transfected with pOR17-40. Format: cell-based. As to conditions: n=168.
The subject of assay [4] is Spermien. Briefly: Signal transduction inhibitors on bourgeonal response of sperm (chemotaxis and swimming speed). It counts as cell-based, human. To be noted: inhibitor 50 µM, Bourgeonal 100 nM. On the procedure: Gefrorene Samenproben von fünf gesunden Spendern wurden aus der California Cryobank (Los Angeles, CA, USA) erhalten und für Bioassays gemäß den World Health Organization-Richtlinien (World Health Organization: Laboratory for the examination of human serum and semen-cervical mucus interaction, Cambridge University Press (1993)) vorbereitet (vgl. vorheriges Beispiel und Beispiel 7). Bevor oder während die Spermien mit Bourgeonal (100 nM) behandelt wurden, wurden sie jeweils (a) mit Adenylatcyclase-Inhibitor (MDL-12,330A, 50 µM) und (b) mit einem Phospholipase C-Inhibitor (U73122, 50 µM) behandelt.

Assay [5] deals with olfaktorische Rezeptor OR5. As to conditions: receptor expressed in E. coli; cited from earlier work.
In assay [6] the target is T2, Ratten-I7-Rezeptor (Rattus norvegicus, UniProt P23270).
T2 sequence (P23270 1-327): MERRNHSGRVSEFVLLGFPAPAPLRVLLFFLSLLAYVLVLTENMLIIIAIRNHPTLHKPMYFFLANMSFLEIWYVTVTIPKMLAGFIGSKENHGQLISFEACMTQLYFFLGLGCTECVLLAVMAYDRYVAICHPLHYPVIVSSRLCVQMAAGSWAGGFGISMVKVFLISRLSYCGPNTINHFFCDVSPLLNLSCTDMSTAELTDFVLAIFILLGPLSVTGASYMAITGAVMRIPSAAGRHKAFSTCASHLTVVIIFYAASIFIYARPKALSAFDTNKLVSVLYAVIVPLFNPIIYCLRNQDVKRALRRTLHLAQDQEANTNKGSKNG
As to conditions: cited from earlier work.

Consider `CC(C)c1ccccc1` [Isopropylbenzol, reference compound], for which the “Rezeptoraktivierung (Ca^2+-Antwort)” value in assay [1] was “induzierte keine Rezeptoraktivität”.

For `CC(C=O)Cc1ccc2c(c1)OCO2` (centres unmarked) [Helional, reference compound], the “Rezeptoraktivierung (Ca^2+-Antwort)” value in assay [1] is on record as “keiner Rezeptoraktivierung”. Also, the “Agonist (Aktivierung des Rezeptors, Erhöhung des cytosolischen Ca^2+-Spiegels)” value in assay [2] is reported as “als Agonisten wirkende Substanzen”. In assay [3], the “vorübergehende Erhöhung des cytosolischen Ca^2+-Spiegels, Anteil aller getesteten Zellen” value is given as 2 - 5%.

For `CC=Cc1ccc(OC)cc1` [Anethol, reference compound], the “Rezeptoraktivierung (Ca^2+-Antwort)” value in assay [1] is “aktivierten den Rezeptor nicht”. `O=Cc1ccccc1` [Benzaldehyd, reference compound]: the “Rezeptoraktivierung (Ca^2+-Antwort)” value in assay [1] is reported as “keine messbare Antwort”. Turning to `O=CCCCc1ccccc1` [4-Phenylbutylaldehyd, 4-Phenylbutyraldehyd], the “Rezeptoraktivierung (Ca^2+-Antwort)” value in assay [1] is “deutliche Ca^2+-Signale”. `COc1ccc(CC(C)C=O)cc1` (centres unmarked) [Canthoxal]: the “Induktion einer Ca^2+-Konzentrationssteigerung” value in assay [1] (agonist concentration reduced to 10^-6 M) was “zu einem gewissen Ausmaß”. In assay [1], the “Wirksamkeit (Rangordnung der Agonisten)” value is recorded as “wirksamere Agonisten” and the “Rezeptoraktivierung (Ca^2+-Antwort)” value was “klare Ca^2+-Antworten”. As for Citrusal [reference compound], the “Rezeptoraktivierung (Ca^2+-Antwort)” value in assay [1] was “nicht aktivierenden”. On the same count and under the same terms, in the case of `O=CCc1ccccc1` [Phenylacetaldehyd] it was “deutliche Ca^2+-Signale”. Turning to `CC(C=O)Cc1ccc(C(C)C)cc1` (centres unmarked) [Cyclamal], in assay [1], the “Wirksamkeit (Rangordnung der Agonisten)” value is recorded as “nicht der wirksamste Agonist” and the “Rezeptoraktivierung (Ca^2+-Antwort)” value is on record as “Agonist identifiziert”. Further, the “Desensitisierung der Geruchsstoff-Antwort” value in assay [1] (single application, most responsive cells, ATP response unchanged) is listed as “vollständigen und langanhaltenden Desensitisierung”.

In the case of `CC(=O)CCc1ccc2c(c1)OCO2` [Heliotropylaceton], the “Agonist (Aktivierung des Rezeptors, Erhöhung des cytosolischen Ca^2+-Spiegels)” value in assay [2] was “als Agonisten wirkende Substanzen”. `COc1ccc2c(c1)CC[C@@H]1[C@@H]2CC[C@]2(C)[C@@H](NCCCCCCN3C(=O)C=CC3=O)CC[C@@H]12` [U73122]: the “Änderung des Spermienverhaltens” value in assay [4] is reported as “keine Änderung des Spermienverhaltens”. `Cl.c1ccc(C2CCCC2NC2=NCCCCCCCCCCC2)cc1` (centres unmarked) [MDL-12,330A]: the “Anteil der bourgeonal-responsiven Spermien, die nicht mehr auf Bourgeonal reagierten” value in assay [4] (missing chemotaxis and missing change of swimming speed) was 72%. Regarding `CCc1ccc(CC(C)(C)C=O)cc1` [Floralazon], in assay [1], the “Rezeptoraktivierung (Ca^2+-Antwort)” value was “Fähigkeit der Substanzen, den Rezeptor zu aktivieren”. Still for that read-out and setting: in the case of `O=C(O)CCc1ccccc1` [3-Phenylpropionsäure, reference compound] it was “aktivierten den Rezeptor nicht”; in that of `CC(C)(C)c1ccc(OCC=O)cc1` [(4-tert-Butylphenoxy)acetaldehyd, (4-tert-butylphenoxy)acetaldehyd], “erzeugte ein Ca^2+-Signal”. As for `CC(C=O)Cc1ccc(C(C)(C)C)cc1` (centres unmarked) [Lilial, reference compound], in assay [1], the “Wirksamkeit (Rangordnung der Agonisten)” value is “wirksamere Agonisten” and the “Rezeptoraktivierung (Ca^2+-Antwort)” value is recorded as “Fähigkeit der Substanzen, den Rezeptor zu aktivieren”. Moreover, the “spezifische Bindung” value in assay [5] is on record as “spezifische Bindung”. In the case of `CC(CC=O)c1ccccc1` (centres unmarked) [3-PBA, 3-Phenylbutyraldehyd], in assay [1], the “eine Ca^2+-Reaktion nicht mehr auslösender Schwellenwert” value is recorded as about 50 µM and the “Rezeptoraktivierung (Ca^2+-Antwort)” value is recorded as “klaren Ca^2+-Antworten”. Consider `O=CCCc1ccccc1` [3-Phenylpropanal], for which the “Rezeptoraktivierung (Ca^2+-Antwort)” value in assay [1] was “klaren Ca^2+-Antworten”. Turning to `O=CC=Cc1ccccc1` [Cinnamaldehyd, reference compound], the “Rezeptoraktivierung (Ca^2+-Antwort)” value in assay [1] was “vollständig inaktiv”. Regarding `CCCCCCCC=O` [Octanal, reference compound], the “Rezeptoraktivierung (Ca^2+-Antwort)” value in assay [1] is on record as “nicht aktiviert”. Also, the “Stimulation des Rezeptors” value in assay [6] is listed as “stimuliert”.

As for `O=CCCCCc1ccccc1` [5-Phenylvaleraldehyd, reference compound], in assay [1], the “Rezeptoraktivierung (Ca^2+-Antwort)” value is recorded as “keine messbare Antwort”. As for `CC(CCO)c1ccccc1` (centres unmarked) [3-Phenylbutylalkohol, reference compound], the “Rezeptoraktivierung (Ca^2+-Antwort)” value in assay [1] is recorded as “aktivierten den Rezeptor nicht”.
